Structures are written as SMILES.

`Cc1ccccc1-c1cc2cnc(NC3CCN(Cc4ccccc4)CC3)nc2n(C2CCOCC2)c1=O` [Compound No. 9, 2-[(1-Benzyl-piperidin-4-yl)amino]-6-(2-methyl-phenyl)-8-(tetrahydro-2H-pyran-4-yl)pyrido[2,3-d]pyrimidin-7(8H)-one]: the melting point (in general, the temperature of the solid-liquid transition) is 201.8 to 203.2 °C.
